Laboratory results taken from US7495104B2, “Quinoline or quinazoline derivatives inhibiting auto-phosphorylation of fibroblast growth factor receptors” (Kirin Beer Kabushiki Kaisha, priority 2001, dated 2009).

target: Bek (Homo sapiens, UniProt P21802); test: Inhibitory activity against Bek-autophosphorylation using ELISA method in OCUM-2MD3 cells; type: cell-based; details: 1 hr with compound, read-out: IC50 (concentration necessary for inhibiting 50% of Bek-phosphorylation)
Method: Human scirrhus stomach cancer cells OCUM-2MD3 (kindly provided by Dr. Kosei Hirakawa, Osaka City University) were cultured in an RPMI medium containing 10% fetal calf serum (purchased from ICN) within a 5% carbon dioxide incubator until 50 to 90% confluent. The harvested cells were seeded onto 96-well flat-bottom plate in RPMI containing 0.1% fetal calf serum at 3.5×10^4 cells per well, followed by cultivation at 37° C. overnight. A solution of the test compound in dimethyl sulfoxide was added to each well, and the cultivation was continued at 37° C. for additional one hr. The medium was removed, and 50 μl of lysis buffer (20 mM HEPES (pH 7.4), 150 mM NaCl, 0.2% Triton X-100, 10% glycerol, 5 mM sodium orthovanadylate, 5 mM disodium ethylenediaminetetraacetate, and 2 mM Na4P2O7) was then added thereto. The mixture was shaken at 4° C. for 2 hr to prepare cell extracts.
Separately, phosphate buffered saline (50 μl, pH 7.4) containing 5 μg/ml of anti-phospho-tyrosine antibody (PY20; purchased from Transduction Laboratories) was added to a microplate for ELISA (Maxisorp; purchased from NUNC), followed by standing at 4° C. overnight to form a solid phase on the wells. After washing of the plate, 300 μl of a blocking solution was added, followed by standing at room temperature for 2 hr to perform blocking. After washing, the whole quantity of the cell extracts was transferred to the wells, and the plate was then allowed to stand at 4° C. overnight. After washing, an anti-Bek antibody (Bek (C-17), purchased from Santa Cruz Biotechnology) or Anti-Human K-sam Rabbit IgG Affinity Purity (purchased from IBL Co., Ltd.) was allowed to react at room temperature for one hr, and, after washing, a peroxidase-labeled anti-rabbit Ig antibody (purchased from Amersham) was allowed to react at room temperature for one hr. After washing, a chromophoric substrate for peroxidase (purchased from Sumitomo Bakelite Co., Ltd.) was added thereto to initiate a reaction. After a suitable level of color development, a reaction termination solution was added to stop the reaction, and the absorbance at 450 nm was measured with a microplate reader. The Bek-phosphorylation activity for each well was determined by presuming the absorbance without the addition of the medicament to be 100% Bek-phosphorylation activity and the absorbance with the addition of a large excess of a positive control (N-{4-[(6,7-dimethoxy-4-quinolyl)oxy]phenyl}-N′-(3,3-dimethylbutyl)urea, 1000 nM) to be 0% Bek-phosphorylation activity. The concentration of the test compound was varied on several levels, the Bek-phosphorylation inhibitory activity was determined for each case, and the concentration of the test compound necessary for inhibiting 50% of Bek-phosphorylation (IC50) was calculated.

Bek, sequence (P21802 431-767 limits assumed): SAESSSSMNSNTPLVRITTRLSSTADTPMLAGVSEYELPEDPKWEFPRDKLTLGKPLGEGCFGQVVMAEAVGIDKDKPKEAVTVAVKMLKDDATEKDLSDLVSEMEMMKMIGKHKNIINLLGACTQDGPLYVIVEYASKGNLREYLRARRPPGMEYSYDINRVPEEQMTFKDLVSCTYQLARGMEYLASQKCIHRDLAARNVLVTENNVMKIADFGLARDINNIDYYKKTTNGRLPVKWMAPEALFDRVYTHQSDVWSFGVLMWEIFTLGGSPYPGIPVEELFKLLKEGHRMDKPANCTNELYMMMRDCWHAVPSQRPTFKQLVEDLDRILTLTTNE

| SMILES | IC50 |
| --- | --- |
| COc1cc2c(Oc3ccc(Nc4ccc(C(C)(C)C)cc4)cc3)ccnc2cc1OCCCN1CCCCC1 [Compound 34, (4-Tert-butylphenyl)-{4-[6-methoxy-7-(3-piperidin-1-ylpropoxy)-quinolin-4-yloxy]phenyl}amine] | 219 nM |
| COc1cc2c(Oc3ccc(Nc4ccc(C(C)(C)C)cc4)cc3)ccnc2cc1OCCCCN1CCCCC1 [Compound 36, (4-Tert-butylphenyl)-{4-[6-methoxy-7-(4-piperidin-1-ylbutoxy)-quinolin-4-yloxy]phenyl}amine] | 247 nM |
| COc1cc2c(Oc3ccc(Nc4ccc(C(C)(C)C)cc4)cc3)ccnc2cc1OCCN1CCOCC1 [Compound 37, (4-Tert-butylphenyl)-{4-[6-methoxy-7-(2-morpholin-4-ylethoxy)quinolin-4-yloxy]phenyl}amine] | 345 nM |
| CCN(CC)CCOc1cc2nccc(Oc3ccc(Nc4ccc(C(C)(C)C)cc4)cc3)c2cc1OC [Compound 41, N1-[4-(Tert-butyl)phenyl]-4-({7-[2-(diethylamino)ethoxy]-6-methoxy-4-quinolyl}oxy)aniline] | 480 nM |
| COc1ccc(Nc2ccc(Oc3ccnc4cc(OC)c(OC)cc34)cc2)cc1OC [Compound 43, (3,4-Dimethoxyphenyl)-[4-(6,7-dimethoxyquinolin-4-yloxy)-phenyl]amine] | 3340 nM |
| COc1cc2c(Oc3ccc(Nc4ccc(C(C)(C)C)cc4)cc3)ccnc2cc1OCCCN(C)C [Compound 46, N1-[4-(Tert-butyl)phenyl]-4-({7-[3-(dimethylamino)propoxy]-6-methoxy-4-quinolyl}oxy)aniline] | 230 nM |
| COc1cc2c(Oc3ccc(Nc4ccc(C(C)(C)C)cc4)cc3)ccnc2cc1OCCN1CCCCCC1 [Compound 50, {4-[7-(2-Azepan-1-ylethoxy)-6-methoxyquinolin-4-yloxy]phenyl}-(4-tert-butylphenyl)amine] | 35 nM |
| COc1cc2c(Oc3ccc(Nc4ccc(C(C)(C)C)cc4)cc3)ccnc2cc1OCCCN(CCO)CCO [Compound 51, 2-[(3-{4-[4-(4-Tert-butylphenylamino)phenoxy]-6-methoxy-quinolin-7-yloxy}propyl)-(2-hydroxyethyl)amino]ethanol] | 30.6 nM |
| COc1cc2c(Oc3ccc(Nc4ccc(C(C)(C)C)cc4)cc3)ccnc2cc1OCCCN(C)CCO [Compound 52, 2-[(3-{4-[4-(4-Tert-butylphenylamino)phenoxy]-6-methoxy-quinolin-7-yloxy}propyl)methylamino]ethanol] | 33 nM |
| COc1cc2c(Oc3ccc(Nc4ccc(C(C)(C)C)cc4)cc3)ccnc2cc1OCC1CCCN(C)C1 (stereo not drawn) [Compound 56, (4-Tert-butylphenyl)-{4-[6-methoxy-7-(1-methylpiperidin-3-ylmethoxy)quinolin-4-yloxy]phenyl}amine] | 405 nM |
| CCN(CC)CC(O)COc1cc2nccc(Oc3ccc(Nc4ccc(C(C)(C)C)cc4)cc3)c2cc1OC (stereo not drawn) [Compound 60, 1-{4-[4-(4-Tert-butyl-phenylamino)phenoxy]-6-methoxyquinolin-7-yloxy}-3-diethylaminopropan-2-ol] | 203 nM |
| COc1cc2c(Oc3ccc(Nc4ccc(C(C)(C)C)cc4)cc3)ccnc2cc1OCC(O)CN1CCCC1 (stereo not drawn) [Compound 61, 1-{4-[4-(4-Tert-butyl-phenylamino)phenoxy]-6-methoxyquinolin-7-yloxy}-3-pyrrolidin-1-ylpropan-2-ol] | 187 nM |
| COc1cc2c(Oc3ccc(Nc4ccc(C(C)(C)C)cc4)cc3)ccnc2cc1OCC(O)CN1CCCCC1 (stereo not drawn) [Compound 62, 1-{4-[4-(4-Tert-butyl-phenylamino)phenoxy]-6-methoxyquinolin-7-yloxy}-3-piperidin-1-ylpropan-2-ol] | 249 nM |
| COc1cc2c(Oc3ccc(Nc4ccc(C(C)(C)C)cc4)cc3)ccnc2cc1OCC(O)CN1CCCCCC1 (stereo not drawn) [Compound 63, 1-Azepan-1-yl-3-{4-[4-(4-tert-butylphenylamino)phenoxy]-6-methoxyquinolin-7-yloxy}propan-2-ol] | 247 nM |
| COc1cc2c(Oc3ccc(Nc4ccc(C(C)(C)C)cc4)cc3)ccnc2cc1OCC(O)CN1CCN(C)CC1 (stereo not drawn) [Compound 64, 1-{4-[4-(4-Tert-butylphenylamino)phenoxy]-6-methoxyquinolin-7-yloxy}-3-(4-methylpiperazin-1-yl)propan-2-ol] | 178 nM |

Second part, the compound after the results:

| IC50 | SMILES |
| --- | --- |
| 220 nM | COc1cc2c(Oc3ccc(Nc4ccc(C(C)(C)C)cc4)cc3)ccnc2cc1OCCCN1CCN(C)CC1 [Compound 35, (4-Tert-butylphenyl)-(4-{6-methoxy-7-[3-(4-methylpiperazin-1-yl)propoxy]quinolin-4-yloxy}phenyl)amine] |
| 463 nM | COc1cc2c(Oc3ccc(Nc4ccc(C(C)(C)C)cc4)cc3)ccnc2cc1OCCN1CCCCC1 [Compound 38, (4-Tert-butylphenyl)-{4-[6-methoxy-7-(2-piperidin-1-ylethoxy)-quinolin-4-yloxy]phenyl}amine] |
| 570 nM | COc1cc2c(Oc3ccc(Nc4ccc(C(C)(C)C)cc4)cc3)ccnc2cc1OCCN1CCCC1 [Compound 39, (4-Tert-butylphenyl)-{4-[6-methoxy-7-(2-pyrrolidin-1-ylethoxy)-quinolin-4-yloxy]phenyl}amine] |
| 924 nM | COc1cc2c(Oc3ccc(Nc4ccc(C(C)(C)C)cc4)cc3)ccnc2cc1OCCN(C)C [Compound 40, N1-[4-(Tert-butyl)phenyl]-4-({7-[2-(dimethylamino)ethoxy]-6-methoxy-4-quinolyl}oxy)aniline] |
| 399 nM | CCCN1CCC(COc2cc3nccc(Oc4ccc(Nc5ccc(C(C)(C)C)cc5)cc4)c3cc2OC)CC1 [Compound 42, (4-Tert-butylphenyl)-{4-[6-methoxy-7-(1-propylpiperidin-4-ylmethoxy)quinolin-4-yloxy]phenyl}amine] |
| 76.5 nM | COc1cc2nccc(Oc3ccc(Nc4ccc(N5CCOCC5)cc4)cc3)c2cc1OC [Compound 44, [4-(6,7-Dimethoxyquinolin-4-yloxy)phenyl]-(4-morpholin-4-ylphenyl)amine] |
| 240 nM | COc1cc2c(Oc3ccc(Nc4ccc(C(C)(C)C)cc4)cc3)ccnc2cc1OCCN1CCCN(C)CC1 [Compound 45, (4-Tert-butylphenyl)-(4-{6-methoxy-7-[2-(4-methyl-[1,4]diazepin-1-yl)ethoxy]quinolin-4-yloxy}phenyl)amine] |
| 243 nM | CCN(CC)CCCOc1cc2nccc(Oc3ccc(Nc4ccc(C(C)(C)C)cc4)cc3)c2cc1OC [Compound 47, N1-[4-(Tert-butyl)phenyl]-4-({7-[3-(diethylamino)propoxy]-6-methoxy-4-quinolyl}oxy)aniline] |
| 33.5 nM | COc1cc2c(Oc3ccc(Nc4ccc(C(C)(C)C)cc4)cc3)ccnc2cc1OCCN(CCO)CCO [Compound 48, 2-[(2-{4-[4-(4-Tert-butyl-phenylamino)phenoxy]-6-methoxy-quinolin-7-yloxy}ethyl)-(2-hydroxyethyl)amino]ethanol] |
| 33.9 nM | COc1cc2c(Oc3ccc(Nc4ccc(C(C)(C)C)cc4)cc3)ccnc2cc1OCCN(C)CCO [Compound 49, 2-[(2-{4-[4-(4-Tert-butyl-phenylamino)phenoxy]-6-methoxy-quinolin-7-yloxy}ethyl)methylamino]ethanol] |
| 38 nM | COc1cc2c(Oc3ccc(Nc4ccc(C(C)(C)C)cc4)cc3)ccnc2cc1OCCCN1CCCC1 [Compound 53, (4-Tert-butylphenyl)-{4-[6-methoxy-7-(3-pyrrolidin-1-ylpropoxy)-quinolin-4-yloxy]phenyl}amine] |
| 324 nM | COc1cc2c(Oc3ccc(Nc4ccc(C(C)(C)C)cc4)cc3)ccnc2cc1OCCCN1CCCCCC1 [Compound 54, {4-[7-(3-Azepan-1-ylpropoxy)-6-methoxyquinolin-4-yloxyl]-phenyl}-(4-tert-butylphenyl)amine] |
| 8000 nM | COc1cc2c(Oc3ccc(Nc4ccc(C(C)(C)C)cc4)cc3)ccnc2cc1OCC1CCCCN1C (stereo not drawn) [Compound 55, (4-Tert-butylphenyl)-{4-[6-methoxy-7-(1-methylpiperidin-2-ylmethoxy)quinolin-4-yloxy]phenyl}amine] |
| 1200 nM | COc1cc2c(Oc3ccc(Nc4ccc(C(C)(C)C)cc4)cc3)ccnc2cc1OCC1CCCN1C (stereo not drawn) [Compound 58, (4-Tert-butylphenyl)-{4-[6-methoxy-7-(1-methylpyrrolidin-2-ylmethoxy)quinolin-4-yloxy]phenyl}amine] |
| 143 nM | COc1cc2c(Oc3ccc(Nc4ccc(C(C)(C)C)cc4)cc3)ccnc2cc1OCC(O)CN1CCOCC1 (stereo not drawn) [Compound 59, 1-{4-[4-(4-Tert-butyl-phenylamino)phenoxy]-6-methoxyquinolin-7-yloxy}-3-morpholin-4-ylpropan-2-ol] |
